Assay results as given in article PMC8330742, “New benzothieno[2,3-c]pyridines as non-steroidal CYP17 inhibitors: design, synthesis, anticancer screening, apoptosis induction, and in silico ADME profile studies” (Journal of Enzyme Inhibition and Medicinal Chemistry, 2021).
pIC50: −log10 of the molar value.

Key:
[1] = tested on: A498; assay: NCI-60 SRB screen; format: cell-based, human; settings: A498;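 on pIC50: half-maximal inhibitory concentration read as cell viability unlike GI50 net growth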
[2] = tested on: MCF7; assay: NCI-60 SRB screen; format: cell-based, human;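 on pIC50: half-maximal inhibitory concentration read as cell viability unlike GI50 net growth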
[3] = tested on: HOP-92; assay: NCI-60 SRB screen; format: cell-based, human; settings: HOP-92;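 on pIC50: half-maximal inhibitory concentration read as cell viability unlike GI50 net growth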
[4] = tested on: BT-549; assay: NCI-60 SRB screen; format: cell-based, human; settings: BT-549;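 on pIC50: half-maximal inhibitory concentration read as cell viability unlike GI50 net growth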
[5] = tested on: DU-145; assay: NCI-60 SRB screen; format: cell-based, human; settings: DU-145
[6] = tested on: U251; assay: NCI-60 SRB screen; format: cell-based, human; settings: U251, five dose
[7] = tested on: MDA-MB-468; assay: NCI-60 SRB screen; format: cell-based, human; settings: MDA-MB-468
[8] = tested on: PC-3; assay: NCI-60 SRB screen; format: cell-based, human; settings: PC-3
[9] = tested on: OVCAR-5; assay: NCI-60 SRB screen; format: cell-based, human; settings: OVCAR-5
[10] = tested on: WI-38 human cell line; assay: In vitro cytotoxicity on WI-38 human cell line (MTT); format: cell-based; settings: WI-38 normal human cell line
Protocol: Cell Line cells were obtained from American Type Culture Collection and were cultured using DMEM (Invitrogen/Life Technologies) supplemented with 10% FBS (Hyclone), 10 µg/ml of insulin (Sigma), and 1% penicillin-streptomycin. All of the other chemicals and reagents were obtained from Sigma or Invitrogen. Plate cells were incubated (cells density 1.2–1.8 × 10,000 cells/well) in a volume of 100 µL complete growth medium and 100 ul of the tested compound per well in a 96-well plate for 24 h before the MTT assay. The cultures were removed from the incubator into a laminar flow hood or other sterile work area followed by the addition of reconstituted MTT in an amount equal to 10% of the culture medium volume, then incubated for an additional 2 h. After the incubation period, cultures were removed from the incubator, and the resulted formazan crystals were dissolved by adding an amount of MTT solubilisation solution [M-8910] equal to the original culture medium volume, then the absorbance at a wavelength of 570 nm was measured. Finally, the IC50 of the tested compound compared to the reference was calculated using GraphPad Prism software.

[11] = tested on: breast cancer cell line (MCF-7); assay: MTT cytotoxicity assay; format: cell-based, human
Protocol: (§1) The MTT method for monitoring in vitro cytotoxicity was used with multiwell plates. Three human cell lines, namely prostate cancer cell line (PC-3), renal cancer cell line (UO-31), and breast cancer cell line (MCF-7) were obtained from the American Type Culture Collection ATCC, Manassas, VA, USA). The cells were trypsinized and seeded in 96 well plates with a density of 1.2 − 1.8 × 10,000 cells/well for 24 h at 37 °C. After treating the cells with five concentrations of compound 5c (0.01, 0.1, 1, 10, 100 µM), an MTT solution (Sigma Co., St. Louis, MO, USA) (5 mg/mL in phosphate buffer solution) was applied to each well and […]. The plates were cultivated in 5% CO2 for 4 h at 37 °C. Successively, the remaining formazan crystals were dissolved in 100 µl of DMSO, and the absorbance was determined with the ROBONIK P2000 spectrophotometer at a wavelength of 570 nm. The obtained values were analysed using Gen5 software (BioTek, UK). The proliferation percentage in each treated cell line was standardised based on their control wells. Both tests have been conducted in triplicate. The IC50 values were calculated using sigmoidal dose-response curve fitting models. […] Each test included a blank containing a complete medium without cells.

[12] = tested on: renal cancer cell line (UO-31); assay: MTT cytotoxicity assay; format: cell-based, human
Protocol: as §1

[13] = tested on: prostate cancer cell line (PC-3); assay: MTT cytotoxicity assay; format: cell-based, human
Protocol: as §1

[14] = tested on: MDA-MB-231/ATCC; assay: NCI-60 SRB screen; format: cell-based, human
[15] = tested on: SF-539; assay: NCI-60 SRB screen; format: cell-based, human; settings: SF-539, five dose
[16] = tested on: SNB-19; assay: NCI-60 SRB screen; format: cell-based; settings: SNB-19, five dose
[17] = tested on: SNB-75; assay: NCI-60 SRB screen; format: cell-based, human; settings: SNB-75, five dose
[18] = tested on: PC-3 cells; assay: Annexin V-FITC apoptosis assay; format: cell-based, human; settings: PC-3, 2.34 µM, 24 h
Protocol: PC-3 cells were placed in a 6-well plate at 1 × 10^5 conc. of cells per well, then incubated for 24 h. Afterward, the cells were treated with 2.34 µM of compound 5c or (0.1% DMSO) for 24 h, then harvested, washed with PBS, and stained with annexin V-FITC and PI in binding buffer ([…], […], and […] at pH 7.4) for 15 min at room temperature in the dark, then analysed by the flow cytometer.

[19] = tested on: RPMI-8226; assay: NCI-60 SRB screen; format: cell-based; settings: RPMI-8226
[20] = tested on: CAKI-1; assay: NCI-60 SRB screen; format: cell-based, human; settings: CAKI-1
[21] = tested on: T-47D; assay: NCI-60 SRB screen; format: cell-based, human
[22] = Homo sapiens, single dose 10^−5 M, read-out: Growth inhibition (%)
[23] = Homo sapiens, MDA-MB-231/ATCC, five dose

N#CC1C(=O)NC(c2ccccc2[N+](=O)[O-])c2sc3c(F)cccc3c21 (stereo not shown) [Compound 5c, 4-Cyano-8-fluoro-1-(2-nitrophenyl)-1,2-dihydro[1]benzothieno[2,3-c] pyridin-3(4H)-one]
TGI ([1]; five dose): 5.98 µM
GI50 ([1]; Homo sapiens, five dose): 1.32 µM
pIC50 ([1]; Homo sapiens, five dose): 5.51
inhibition at 10 µM [1, 22]: 161%
inhibition at 10 µM ([2]; Homo sapiens, MCF-7, single dose 10^−5 M, read-out: Growth inhibition (%)): 76.4%
GI50 ([2]; Homo sapiens, five dose): 0.26 µM
pIC50 ([2]; Homo sapiens, five dose): 6.26
TGI ([2]; five dose): 10.00 µM
TGI ([3]; five dose): 100 µM
GI50 ([3]; Homo sapiens, five dose): 12.6 µM
pIC50 ([3]; Homo sapiens, five dose): 4.10
inhibition at 10 µM [3, 22]: 115%
TGI ([4]; five dose): 100 µM
GI50 ([4]; Homo sapiens, five dose): 16.5 µM
pIC50 ([4]; Homo sapiens, five dose): 4.14
inhibition at 10 µM [4, 22]: 10.8%
TGI ([5]; five dose): 100 µM
GI50 ([5]; Homo sapiens, five dose): 10.5 µM
pIC50 ([5]; Homo sapiens, five dose): 4.72
inhibition at 10 µM [5, 22]: 10.1%
GI50 ([6]; Homo sapiens, U-251): 2.5 µM
pIC50 ([6]; Homo sapiens, U-251): 4.90
TGI [6]: 100 µM
GI50 ([7]; Homo sapiens, five dose): 0.15 µM
pIC50 ([7]; Homo sapiens, five dose): 6.62
inhibition at 10 µM [7, 22]: 149%
TGI ([7]; five dose): 0.65 µM
GI50 ([8]; Homo sapiens, five dose): 13.6 µM
pIC50 ([8]; Homo sapiens, five dose): 4.60
inhibition at 10 µM [8, 22]: 20%
TGI ([8]; five dose): 100 µM
GI50 ([9]; Homo sapiens, five dose): 0.73 µM
pIC50 ([9]; Homo sapiens, five dose): 5.47
inhibition at 10 µM [9, 22]: 115%
TGI ([9]; five dose): 100 µM
pIC50 [10]: 4.47
potency compared to staurosporine [11]: half potency
potency compared to staurosporine [12]: higher potency
potency compared to staurosporine [13]: higher potency
potency relative to abiraterone [13]: fourfold
pIC50 ([13]; Homo sapiens): 5.68
inhibition at 10 µM ([14]; Homo sapiens, MDA-MB-231, MDAMB231/ATCC, single dose 10^−5 M, read-out: Growth inhibition (%)): 24.5%
GI50 [14, 23]: 11.6 µM
pIC50 [14, 23]: 4.48
TGI ([14]; MDA-MB-231/ATCC, five dose): 100 µM
GI50 ([15]; Homo sapiens): 23 µM
pIC50 ([15]; Homo sapiens): 4.33
TGI [15]: 100 µM
GI50 ([16]; Homo sapiens): 24.6 µM
pIC50 ([16]; Homo sapiens): 4.35
LC50 ([16]; Homo sapiens): > 100 µM
TGI [16]: 100 µM
GI50 ([17]; Homo sapiens): 6.12 µM
pIC50 ([17]; Homo sapiens): < 4.00
TGI [17]: 100 µM
Apoptosis total (% of cells) [18]: 42.55%
Early apoptosis (% of cells) [18]: 1.66%
Late apoptosis (% of cells) [18]: 26.67%
Necrosis (% of cells) [18]: 14.22%
elevation in necrosis vs control [18]: 7.68 fold
increase in early apoptotic cells vs control [18]: 6.64 fold
increase in late apoptotic cells vs control [18]: 140.36 fold
total increase vs control [18]: 18.58 fold
GI50 ([19]; Homo sapiens, five dose): 10.6 µM
pIC50 ([19]; Homo sapiens, five dose): 4.46
LC50 ([19]; Homo sapiens, five dose): > 100 µM
inhibition at 10 µM [19, 22]: 58.8%
TGI ([19]; five dose): 100 µM
TGI ([20]; five dose): 100 µM
GI50 ([20]; Homo sapiens, five dose): 0.17 µM
pIC50 ([20]; Homo sapiens, five dose): 6.25
inhibition at 10 µM [20, 22]: 94.7%
GI50 ([21]; Homo sapiens, T47D, five dose): 0.32 µM
pIC50 ([21]; Homo sapiens, T47D, five dose): < 4.00
inhibition at 10 µM ([21]; Homo sapiens, T47D, single dose 10^−5 M, read-out: Growth inhibition (%)): 97.5%
TGI ([21]; five dose): 100 µM
